Data on nine molecules can be found in patent US20020132817A1, “Heterocyclic compounds, their production and use” (priority 1998, published 2002).

The target in series [1] is T1, substance P receptor (Homo sapiens, UniProt P25103).
T1 construct: The receptor was prepared from human lymphoblast cells (IM-9); endogenous in cells; host or cells: IM-9 human lymphoblast cells (membrane preparation)
Put plainly: Radioligand receptor binding inhibitory activity using receptor from human lymphoblast cells (IM-9). Conditions: 125I-BHSP radioligand, receptor from IM-9 cells, 25° C. for 30 minutes. The method, then:
Radioligand receptor binding inhibitory activity Binding inhibitory activity using receptor from human lymphoblast cells (IM-9)
The receptor was prepared from human lymphoblast cells (IM-9). IM-9 cells (2×10^5 cells/ml) were inoculated and incubated for 3 days (one liter), which was then subjected to centrifuge for 5 minutes at 500×g to obtain cell pellets. […] The residue was washed twice with 30 ml of the above-mentioned buffer, which was then preserved frozen (−80° C.) as a specimen of the receptor.
The specimen was suspended in a reaction buffer (50 mM Tri-HCl buffer (pH 7.4), 0.02% bovine serum albumin, 1 mM phenylmethylsulfonyl fluoride, […], […] bacitracin, 3 mM manganese chloride) and 100 ul portion was the suspension was used in the reaction. […] The amount of nonspecific binding was determined by adding substance P at a final concentration of 2×10^−6M. After the reaction, using a cell harvester (290 PHD, Cambridge Technology, Inc, U.S.A.), rapid filtration was carried out through a glass filter (GF/B, Whatman, U.S.A.) to stop the reaction. After washing three times with 250 ul of 50 mM of Tris-HCl buffer (pH 7.4) containing 0.02% bovine serum albumin, the radioactivity remaining on the filter was determined with a gamma counter. Before use, the filter was immersed in 0.1% polyethyleneimine for 24 hours and air-dried.

T1 sequence (P25103 whole entry): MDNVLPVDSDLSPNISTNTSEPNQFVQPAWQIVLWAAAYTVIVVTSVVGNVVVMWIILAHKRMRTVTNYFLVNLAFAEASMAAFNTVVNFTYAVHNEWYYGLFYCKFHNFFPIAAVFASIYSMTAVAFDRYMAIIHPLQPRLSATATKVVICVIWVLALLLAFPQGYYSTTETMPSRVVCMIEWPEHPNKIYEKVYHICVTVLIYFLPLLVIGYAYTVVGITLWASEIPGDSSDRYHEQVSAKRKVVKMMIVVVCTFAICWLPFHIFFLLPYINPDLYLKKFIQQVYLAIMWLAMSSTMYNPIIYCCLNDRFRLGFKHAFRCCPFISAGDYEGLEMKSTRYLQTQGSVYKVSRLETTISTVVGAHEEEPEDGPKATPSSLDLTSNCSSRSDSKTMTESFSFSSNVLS

With `Cc1cc(C)cc(CN2C[C@H](C)CCn3c(c(-c4ccc(Cl)c(Cl)c4)c4cccnc4c3=O)C2=O)c1` [Example 11, (9R)-5-(3,4-dichlorophenyl)-7-(3,5-dimethylbenzyl)-6,7,8,9,10,11-hexahydro-9-methyl-6,13-dioxo-13H-[1,4]diazosino[2,1-g][1,7]napththylidine], the melting point was in the range of 137 to 139 °C. In series [1], this molecule showed a 50% inhibitory concentration (IC50) of 0.81 nM.
For `O=C1c2c(-c3ccccc3)cc(CCl)nc2OCCN1Cc1cc(C(F)(F)F)cc(C(F)(F)F)c1` [Reference Example 93, 4-[3,5-Bis(trifluoromethyl)benzyl]-8-chloromethyl-2,3,4,5-tetrahydro-5-oxo-6-phenylpyrido[3,2-f][1,4]oxazepine], in that order: 183 to 184 °C and 0.42 nM.
For `Cc1ccc(-c2c3n(c(=O)c4ncccc24)CC[C@@H](C)CN(Cc2cc(C)cc(C)c2)C3=O)cc1` [Example 9, (9R)-7-(3,5-dimethylbenzyl)-6,7,8,9,10,11-hexahydro-9-methyl-5-(4-methylphenyl)-6,13-dioxo-13H-[1,4]diazosino[2,1-g][1,7]napththylidine], in that order: 200 to 202 °C and 0.86 nM.
`CN(C)Cc1cc(-c2ccccc2)c2c(n1)OCCN(Cc1cc(C(F)(F)F)cc(C(F)(F)F)c1)C2=O` [Reference Example 99, 4-[3,5-Bis(trifluoromethyl)benzyl]-8-dimethylaminomethyl-2,3,4,5-tetrahydro-5-oxo-6-phenylpyrido[3,2-f][1,4]oxazepine] returned a melting point of 186 to 188 °C. In series [1], the half-inhibitory concentration (IC50) worked out at 0.12 nM.
For `Cc1cc(-c2ccccc2)c2c([n+]1[O-])OCCN(Cc1cc(C(F)(F)F)cc(C(F)(F)F)c1)C2=O` [Reference Example 89, 4-[3,5-Bis(trifluoromethyl)benzyl]-2,3,4,5-tetrahydro-8-methyl-5-oxo-6-phenylpyrido[3,2-f][1,4]oxazepine 9-oxide], in that order: 181 to 183 °C and 0.44 nM.
In turn, `CC(=O)OCc1cc(-c2ccccc2)c2c(n1)OCCN(Cc1cc(C(F)(F)F)cc(C(F)(F)F)c1)C2=O` [Reference Example 91, 8-Acetoxymethyl-4-[3,5-bis(trifluoromethyl)benzyl]-2,3,4,5-tetrahydro-5-oxo-6-phenylpyrido[3,2-f][1,4]oxazepine] showed a melting point of 122 to 124 °C. For the same molecule, in series [1], the concentration for half-maximal inhibition (IC50) is 0.28 nM.
For `CC1CCn2c(c(-c3ccccc3)c3cccnc3c2=O)C(=O)N(Cc2cc(C(F)(F)F)cc(C(F)(F)F)c2)C1` (racemic) [Reference Example 69, (+/−)-7-[3,5-Bis(trifluoromethyl)benzyl]-6,7,8,9,10,11-hexahydro-9-methyl-6,13-dioxo-5-phenyl-13H-[1,4]diazocino[2,1-g][1,7]naphthyridine], the melting point is 257 to 258 °C. This molecule gave an IC50 in series [1] of 0.88 nM.
For `CCC1CCn2c(c(-c3ccc(C)cc3)c3cccnc3c2=O)C(=O)N(Cc2cc(C(F)(F)F)cc(C(F)(F)F)c2)C1` (racemic) [Example 15, (±)-7-[3,5-bis(trifluoromethyl)benzyl]-9-ethyl-6,7,8,9,10,11-hexahydro-5-(4-methylphenyl)-6,13-dioxo-13H-[1,4]diazosino[2,1-g][1,7]napththylidine], in that order: 258 to 260 °C and 1.1 nM.
`Cc1ccc(-c2c3n(c(=O)c4ncccc24)CC(O)CN(Cc2cc(C(F)(F)F)cc(C(F)(F)F)c2)C3=O)cc1` (racemic) [Reference Example 79, (+/−)-7-[3,5-Bis(trifluoromethyl)benzyl]-6,7,8,9,10,12-hexahydro-9-hydroxy-5-(4-methylphenyl)-6,12-dioxo[1,4]diazepino [2,1-g][1,7]naphthyridine]: the melting point is 282 to 283 °C. Further, the half-maximal inhibitory concentration (IC50) in series [1] turned out to be 0.1 nM.
